From patent publication US11896704B2, “Compounds useful for the treatment and/or care of the skin, hair, nails and/or mucous membranes” (LUBRIZOL ADVANCED MATERIALS, INC., priority 2017, dated 2024)

How the values were obtained:
Type in all cases: cell-based
[1] = system: mitochondrial complex II (succinate-coenzyme Q reductase); experiment: Mitochondrial complex II activity in human dermal fibroblasts, colorimetric assay; conditions: HDFa, 24 hours
Protocol: Measurement of Increase in Mitochondrial Complex II Activity Using an Assay Based on Colorimetric Detection.
Human Dermal Fibroblasts from adult (HDFa, Life Technologies) are seeded at a density of 750.000 cells/75 cm^2 flask (one flask per condition) in culture medium M106 with Low Serum Growth Supplement (Life Technologies). Cells are grown during 7 days at 37° C. in 5% CO2 humidified air. […]. Non treated cells incubated in culture medium alone are used as basal conditions. After 24 hours of treatment, cells are detached using trypsin and resuspended in 40 ul of Phosphate buffer saline (Sigma). Total protein concentration is measured with a Pierce BCA Protein Assay Kit (BCA Assay, Thermo Scientific) following manufacturer's protocol to adjust the final protein concentration between 2500-3000 ug/ml. Briefly, standards and samples are dispensed and Working Reagent is added to the samples. After 30 minutes of incubation at 37° C., absorbance is measured with a microplate reader (Clariostar®, BMG) at 562 nm.
Mitochondrial complex II activity is measured with Complex II enzyme activity microplate assay Kit (Abcam) according to the manufacture's protocol. This assay follows the production of ubiquinol (QH2, produced by mitochondrial complex II) coupled to the reduction of a colorimetric dye (DCPIP, 2,6-diclorophenolindophenol). In brief, 50 ul of each sample (adjusted to 2500-3000 ug/ml of total protein amount) is incubated for 2 hours. After that, wells are washed several times and incubated with Activity solution provided with the kit (composed by ubiquinone, succinate and DCPIP). For the determination of mitochondrial complex II activity, colorimetric reduction of DCPIP at Optical Density (OD) 600 nm in a kinetic reaction along 30 minutes is measured with a microplate reader (Clariostar®, BMG). Results are calculated as the rate of decrease in absorbance at OD 600 nm between two points in the linear zone over time.
[…]. These values represent the mean for at least three independent assays.

[2] = system: Phenion Full-Thickness Skin models; experiment: Hydration level in synchronized human full-thickness skin models; conditions: 0.5 mg/ml, 48 hours of treatment, one assay
Protocol: Measurement of Hydration Level in Synchronized Human Full-Thickness Skin Models.
Immediately after arrival, the Phenion® Full-Thickness Skin models (HENKEL) are placed in Petri dishes (5 skin models per condition) according to the supplier's instructions in ALI medium (HENKEL). After 72 hours incubation at 37° C., 5% CO2, a synchronization protocol is initialized. For this purpose, skin models are subjected to two alternative cycles of 12 hours each at 37° C. in 5% CO2 humidified air (day mode) and 33° C. in 5% CO2 humidified air (night mode). At the beginning of the synchronization, pre-treatment measurement of hydration at 7:30 hours is tested in skin models. Hydration measurements of the epidermis are performed with DPM 9003 BT™ (NOVA® Technology Corporation) and with MoistureMeter SC™ (Delphin). For pre-treatment measurements, skin model's surface is washed with 5 ml of Phosphate Buffered Saline (PBS, Sigma). […]
The results in Table 13 show the mean of the percentage of hydration levels at 7:30 hours after 48 hours of treatment relative to hydration levels in basal conditions. […] These values are calculated for one assay. […]
The results in Table 14 represent the mean of the percentage of hydration levels at 7:30 hours after 48 hours of treatment relative to hydration levels in basal conditions at the same time. […] These values are calculated for one assay. […]

JARID1A gene = JARID1A gene expression in synchronized human epidermal keratinocytes (HEKa), real time PCR arrays; conditions: 0.5 mg/ml, one experiment
Protocol: In Vitro Study of JARID1A Gene Expression in Synchronized Human Epidermal Keratinocytes from Adult (HEKa) Using Real Time PCR Arrays.
HEKa cells (Life Technologies) are seeded at 3.0×10^5 cells/well in 12-well plates (2 wells per condition) and incubated in culture medium, Keratinocyte growth medium supplemented with Mix C39016-CaCl2 solution (Promocell). For synchronization, cells were subjected to two alternative cycles of 12 hours each at 37° C. in 5% CO2 humidified air (day mode) and 33° C. in 5% CO2 humidified air (night mode). 12 hours after starting synchronization, cells are incubated with the peptides at 0.5 mg/ml or (5 μg/ml) in culture medium, depending on the toxicity effects of each peptide (non-toxic conditions are selected). Cells treated with medium alone are used as basal condition.
At the end of synchronization, cell lysates are collected at two different times: 7:30 hour (early morning point) and 11:30 hour (midday point). Briefly, cells are lysed directly in the wells, and RNA is purified following the protocol described on the RNeasy™ Mini kit (Qiagen) according to the manufacture's protocol. After RNA elution, quantification and analysis of purity of RNA samples are performed with a nanodrop (Thermo). For each sample, 3 μg of high quality RNA is retrotranscribed with iScript Advanced™ (BioRad) in a final volume of 20 μl. Complete reaction mix is incubated in a thermal cycler (Eppendorf) at 42° C. for 30 minutes, and the reaction is stopped at 85° C. for 5 minutes. Complementary DNA is amplified by qPCR in a real-time PCR thermocycler (BioRad) using SYBR Green Supermix™ (BioRad) in the 96-well plate for use with SYBR® Green (BioRad). SYBR Green binds to double-stranded DNA molecules and emits fluorescence which is quantified, and the fluorescence intensity is proportional to the amount of the product in the PCR reaction. Cycling conditions in BioRad CFX96™ instrument are: 95° C. for 3 minutes, followed by 40 cycles of denaturing at 95° C. for 5 seconds, annealing and elongation at 60° C. for 30 seconds. GAPDH (Glyceraldehyde 3-phosphate dehydrogenase), TBP (TATA box binding protein) and HRPT1 (hypoxanthine phosphoribosyltransferase 1) are used as endogenous controls. Fold change relative to the expression of the sample genes and reference genes is calculated using normalized expression (AA(Ct)) method using CFX Manager Software™ (BioRad).
Fold induction of JARID1A gene at 7:30 hour with respect to basal conditions at 7:30 hour for the samples tested are shown in Table 7. The data for fold induction represent the value of one experiment.

Percentage of mitochondrial complex II activity relative to basal condition (%) ([1]; 0.1 mg/mL): 166.00%
Percentage of mitochondrial complex II activity relative to basal condition (%) ([1]; 0.5 mg/mL): 142.12%
Percentage of mitochondrial complex II activity relative to basal condition (%) ([1]; 1 mg/mL): 133.00%
Substance: H-Phe-Trp-Met-Lys-Arg-Lys-Arg-Val-Pro-NH2 (H-FWMKRKRVP-NH2) [PEP-1]
Hydration level (%) ([2]; 7:30 h, relative to basal conditions 7:30 h, MoistureMeter SC): 110.1%
Hydration level at 7:30 hours (%) ([2]; relative to basal conditions, DPM9003 BT): 131.6%
Fold induction with respect to Basal condition at 7:30h (%) (JARID1A gene): 212.39%
